Source: patent US20240058464A1 (Fortis Therapeutics, Inc., priority 2021, published 2024)

Key:
CD46 expression [1] = experiment: CD46 expression by RNA-sequencing in paired tumor biopsies before and after therapy; details: paired biopsies; for CD46 expression, Post-Treatment Biopsy / CD46 expression, Pre-Treatment Biopsy: RNA-seq log2-transformed counts;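 on all read-outs here: FFPE human tumor biopsies, exome-capture RNA-seq, reads aligned to GRCh37, counts normalized for GC content, length and depth, summed per gene, log2-transformed, samples paired before versus after therapy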
CD46 expression [2] = experiment: CD46 expression by RNA-sequencing in unpaired pre-treatment and post-treatment tumor biopsies; assay type: in vivo, human; details: for CD46 expression Post: post-treatment biopsies
[3] = Bladder Cancer, post minus pre, unpaired biopsies
[4] = Bladder Cancer, post vs pre, unpaired biopsies
[5] = Bladder Cancer, log2-transformed RNA-seq counts
[6] = Breast Cancer, Post minus Pre, unpaired biopsies, log2-transformed counts
[7] = Breast Cancer, post- vs pre-treatment unpaired biopsies
[8] = Breast Cancer, unpaired, RNA-seq log2-transformed normalized counts
[9] = Non-Small Cell Lung Cancer, Post minus Pre, unpaired biopsies, log2-transformed counts
[10] = Non-Small Cell Lung Cancer, post- vs pre-treatment unpaired biopsies
[11] = Non-Small Cell Lung Cancer, unpaired, RNA-seq log2-transformed normalized counts
[12] = Ovarian Cancer, Post minus Pre, unpaired biopsies, log2-transformed counts
[13] = Ovarian Cancer, post- vs pre-treatment unpaired biopsies
[14] = Ovarian Cancer, unpaired, RNA-seq log2-transformed normalized counts
[15] = Sarcoma, Post minus Pre, unpaired biopsies, log2-transformed counts
[16] = Sarcoma, post- vs pre-treatment unpaired biopsies
[17] = Sarcoma, unpaired, RNA-seq log2-transformed normalized counts
[18] = Prostate Cancer, Post minus Pre, unpaired biopsies, log2-transformed counts
[19] = Prostate Cancer, post- vs pre-treatment unpaired biopsies
[20] = Prostate Cancer, unpaired, RNA-seq log2-transformed normalized counts

N.N.[Cl][Pt][Cl] [cisplatin]
CD46 expression diff (post minus pre) (CD46 expression [1]; Biliary Cancer): 0.15 | Percent Change in CD46 expression (CD46 expression [1]; Biliary Cancer): 2.6% | CD46 expression, Post-Treatment Biopsy (CD46 expression [1]; Biliary Cancer): 5.97 | CD46 expression, Pre-Treatment Biopsy (CD46 expression [1]; Biliary Cancer): 5.82 | CD46 expression diff (post minus pre) (CD46 expression [1]; Bladder Cancer): 0.10 | Percent Change in CD46 expression (CD46 expression [1]; Bladder Cancer): 1.6% | CD46 expression, Pre-Treatment Biopsy (CD46 expression [1]; Bladder Cancer): 6.15 | CD46 expression diff (post minus pre) (CD46 expression [1]; Non-Small Cell Lung Cancer): −0.45 | Percent Change in CD46 expression (CD46 expression [1]; Non-Small Cell Lung Cancer): −7.2% | CD46 expression, Post-Treatment Biopsy (CD46 expression [1]; Non-Small Cell Lung Cancer): 5.85 | CD46 expression diff (CD46 expression [2]; Biliary Cancer, Post minus Pre, unpaired biopsies, log2-transformed counts): −0.06 | CD46 expression Percentage change (CD46 expression [2]; Biliary Cancer, post- vs pre-treatment unpaired biopsies): −1.0% | CD46 expression Post (CD46 expression [2]; Biliary Cancer, unpaired, RNA-seq log2-transformed normalized counts): 5.76 | CD46 expression diff (CD46 expression [2]; [3]): −0.19 | CD46 expression Percentage change (CD46 expression [2]; [4]): −3.1% | CD46 expression Post (CD46 expression [2]; [5]): 6.00 | CD46 expression Pre (CD46 expression [2]; Bladder Cancer, pre-treatment biopsies, log2-transformed RNA-seq counts): 6.19 | CD46 expression diff (CD46 expression [2]; [6]): 0.02 | CD46 expression Percentage change (CD46 expression [2]; [7]): 0.3% | CD46 expression Post (CD46 expression [2]; [8]): 5.98 | CD46 expression diff (CD46 expression [2]; Endometrial Cancer, Post minus Pre, unpaired biopsies, log2-transformed counts): 0.26 | CD46 expression Percentage change (CD46 expression [2]; Endometrial Cancer, post- vs pre-treatment unpaired biopsies): 4.6% | CD46 expression Post (CD46 expression [2]; Endometrial Cancer, unpaired, RNA-seq log2-transformed normalized counts): 5.99 | CD46 expression diff (CD46 expression [2]; Head and Neck Squamous Cell Carcinoma, Post minus Pre, unpaired biopsies, log2-transformed counts): 0.13 | CD46 expression Percentage change (CD46 expression [2]; Head and Neck Squamous Cell Carcinoma, post- vs pre-treatment unpaired biopsies): 2.4% | CD46 expression Post (CD46 expression [2]; Head and Neck Squamous Cell Carcinoma, unpaired, RNA-seq log2-transformed normalized counts): 5.69 | CD46 expression diff (CD46 expression [2]; [9]): −0.05 | CD46 expression Percentage change (CD46 expression [2]; [10]): −0.8% | CD46 expression Post (CD46 expression [2]; [11]): 6.11 | CD46 expression diff (CD46 expression [2]; [12]): 0.03 | CD46 expression Percentage change (CD46 expression [2]; [13]): 0.6% | CD46 expression Post (CD46 expression [2]; [14]): 5.79 | CD46 expression diff (CD46 expression [2]; Pancreatic Cancer, Post minus Pre, unpaired biopsies, log2-transformed counts): 0.18 | CD46 expression Percentage change (CD46 expression [2]; Pancreatic Cancer, post- vs pre-treatment unpaired biopsies): 3.1% | CD46 expression Post (CD46 expression [2]; Pancreatic Cancer, unpaired, RNA-seq log2-transformed normalized counts): 6.16 | CD46 expression diff (CD46 expression [2]; [15]): 0.19 | CD46 expression Percentage change (CD46 expression [2]; [16]): 3.9% | CD46 expression Post (CD46 expression [2]; [17]): 5.02 | CD46 expression after treatment vs pre-treatment (CD46 expression [2]; head and neck squamous cell carcinoma, unpaired biopsies, FIG. 7): significantly higher

O=P1(N(CCCl)CCCl)NCCCO1 (stereo not shown) [cyclophosphamide]
CD46 expression diff (post minus pre) (CD46 expression [1]; Breast Cancer): 0.01 | Percent Change in CD46 expression (CD46 expression [1]; Breast Cancer): 0.2% | CD46 expression, Post-Treatment Biopsy (CD46 expression [1]; Breast Cancer): 6.22 | CD46 expression diff (CD46 expression [2]; [6]): −0.03 | CD46 expression Percentage change (CD46 expression [2]; [7]): −0.4% | CD46 expression Post (CD46 expression [2]; [8]): 6.08 | CD46 expression diff (CD46 expression [2]; [12]): 0.11 | CD46 expression Percentage change (CD46 expression [2]; [13]): 1.9% | CD46 expression Post (CD46 expression [2]; [14]): 5.76 | CD46 expression diff (CD46 expression [2]; [15]): 0.06 | CD46 expression Percentage change (CD46 expression [2]; [16]): 1.2% | CD46 expression Post (CD46 expression [2]; [17]): 5.12

C[C@@H]1C[C@H]2[C@@H]3CCC4=CC(=O)C=C[C@]4(C)[C@@]3(F)[C@@H](O)C[C@]2(C)[C@@]1(O)C(=O)CO [dexamethasone]
CD46 expression diff (post minus pre) (CD46 expression [1]; Colorectal Cancer): −0.19 | Percent Change in CD46 expression (CD46 expression [1]; Colorectal Cancer): −3.0% | CD46 expression, Post-Treatment Biopsy (CD46 expression [1]; Colorectal Cancer): 5.96 | CD46 expression diff (CD46 expression [2]; [6]): −0.07 | CD46 expression Percentage change (CD46 expression [2]; [7]): −1.1% | CD46 expression Post (CD46 expression [2]; [8]): 6.20 | CD46 expression diff (CD46 expression [2]; Colorectal Cancer, Post minus Pre, unpaired biopsies, log2-transformed counts): 0.06 | CD46 expression Percentage change (CD46 expression [2]; Colorectal Cancer, post- vs pre-treatment unpaired biopsies): 1.0% | CD46 expression Post (CD46 expression [2]; Colorectal Cancer, unpaired, RNA-seq log2-transformed normalized counts): 6.44 | CD46 expression diff (CD46 expression [2]; [9]): 0.00 | CD46 expression Percentage change (CD46 expression [2]; [10]): 0.0% | CD46 expression Post (CD46 expression [2]; [11]): 6.14 | CD46 expression diff (CD46 expression [2]; Ovarian Cancer, post minus pre, unpaired biopsies): −0.22 | CD46 expression Percentage change (CD46 expression [2]; Ovarian Cancer, post vs pre, unpaired biopsies): −3.9% | CD46 expression Post (CD46 expression [2]; Ovarian Cancer, log2-transformed RNA-seq counts): 5.48 | CD46 expression diff (CD46 expression [2]; Pancreatic Cancer, post minus pre, unpaired biopsies): −0.27 | CD46 expression Percentage change (CD46 expression [2]; Pancreatic Cancer, post vs pre, unpaired biopsies): −4.5% | CD46 expression Post (CD46 expression [2]; Pancreatic Cancer, log2-transformed RNA-seq counts): 5.75

CC(=O)O[C@@]12CO[C@@H]1C[C@H](O)[C@@]1(C)C(=O)[C@H](O)C3=C(C)[C@@H](OC(=O)[C@H](O)[C@@H](NC(=O)OC(C)(C)C)c4ccccc4)C[C@@](O)([C@@H](OC(=O)c4ccccc4)[C@H]21)C3(C)C [docetaxel]
CD46 expression diff (post minus pre) (CD46 expression [1]; Breast Cancer): 0.22 | Percent Change in CD46 expression (CD46 expression [1]; Breast Cancer): 3.7% | CD46 expression, Post-Treatment Biopsy (CD46 expression [1]; Breast Cancer): 6.19 | CD46 expression diff (post minus pre) (CD46 expression [1]; Prostate Cancer): −0.03 | Percent Change in CD46 expression (CD46 expression [1]; Prostate Cancer): −0.4% | CD46 expression, Post-Treatment Biopsy (CD46 expression [1]; Prostate Cancer): 5.76 | CD46 expression diff (CD46 expression [2]; [6]): 0.04 | CD46 expression Percentage change (CD46 expression [2]; [7]): 0.7% | CD46 expression Post (CD46 expression [2]; [8]): 6.23 | CD46 expression diff (CD46 expression [2]; Gastric Cancer, post minus pre, unpaired biopsies): −0.17 | CD46 expression Percentage change (CD46 expression [2]; Gastric Cancer, post vs pre, unpaired biopsies): −3.0% | CD46 expression Post (CD46 expression [2]; Gastric Cancer, log2-transformed RNA-seq counts): 5.59 | CD46 expression diff (CD46 expression [2]; [9]): 0.02 | CD46 expression Percentage change (CD46 expression [2]; [10]): 0.3% | CD46 expression diff (CD46 expression [2]; [12]): 0.12 | CD46 expression Percentage change (CD46 expression [2]; [13]): 2.1% | CD46 expression Post (CD46 expression [2]; [14]): 5.88 | CD46 expression diff (CD46 expression [2]; [18]): −0.14 | CD46 expression Percentage change (CD46 expression [2]; [19]): −2.2% | CD46 expression Post (CD46 expression [2]; [20]): 6.02 | CD46 expression diff (CD46 expression [2]; Sarcoma, post minus pre, unpaired biopsies): −0.14 | CD46 expression Percentage change (CD46 expression [2]; Sarcoma, post vs pre, unpaired biopsies): −2.8% | CD46 expression Post (CD46 expression [2]; Sarcoma, log2-transformed RNA-seq counts): 5.00

COc1cccc2c1C(=O)c1c(O)c3c(c(O)c1C2=O)C[C@@](O)(C(=O)CO)C[C@@H]3O[C@H]1C[C@H](N)[C@H](O)[C@H](C)O1 [doxorubicin]
CD46 expression diff (post minus pre) (CD46 expression [1]; Breast Cancer): 0.12 | Percent Change in CD46 expression (CD46 expression [1]; Breast Cancer): 1.9% | CD46 expression, Post-Treatment Biopsy (CD46 expression [1]; Breast Cancer): 6.27 | CD46 expression diff (post minus pre) (CD46 expression [1]; Sarcoma): 0.20 | Percent Change in CD46 expression (CD46 expression [1]; Sarcoma): 4.1% | CD46 expression, Post-Treatment Biopsy (CD46 expression [1]; Sarcoma): 5.19 | CD46 expression diff (CD46 expression [2]; [3]): −0.27 | CD46 expression Percentage change (CD46 expression [2]; [4]): −4.3% | CD46 expression Post (CD46 expression [2]; [5]): 5.88 | CD46 expression diff (CD46 expression [2]; [6]): −0.02 | CD46 expression Percentage change (CD46 expression [2]; [7]): −0.3% | CD46 expression diff (CD46 expression [2]; [15]): 0.07 | CD46 expression Percentage change (CD46 expression [2]; [16]): 1.3% | CD46 expression Post (CD46 expression [2]; [17]): 5.06

CNC(=O)c1ccc(N2C(=S)N(c3ccc(C#N)c(C(F)(F)F)c3)C(=O)C2(C)C)cc1F [enzalutamide]
CD46 expression diff (post minus pre) (CD46 expression [1]; Prostate Cancer): 0.06 | Percent Change in CD46 expression (CD46 expression [1]; Prostate Cancer): 1.1% | CD46 expression, Post-Treatment Biopsy (CD46 expression [1]; Prostate Cancer): 6.01 | CD46 expression diff (CD46 expression [2]; [18]): 0.03 | CD46 expression Percentage change (CD46 expression [2]; [19]): 0.4% | CD46 expression Post (CD46 expression [2]; [20]): 6.14

C=C1C[C@@H]2CC[C@@]34C[C@H]5O[C@H]6[C@@H](O3)[C@H]3O[C@H](CC[C@@H]3O[C@H]6[C@H]5O4)CC(=O)C[C@@H]3[C@@H](OC)[C@@H](C[C@H](O)CN)O[C@H]3C[C@H]3O[C@@H](CC[C@@H]1O2)C[C@@H](C)C3=C [eribulin]
CD46 expression diff (post minus pre) (CD46 expression [1]; Breast Cancer): −0.54 | Percent Change in CD46 expression (CD46 expression [1]; Breast Cancer): −8.4% | CD46 expression, Post-Treatment Biopsy (CD46 expression [1]; Breast Cancer): 5.92 | CD46 expression diff (CD46 expression [2]; [6]): 0.11 | CD46 expression Percentage change (CD46 expression [2]; [7]): 1.8% | CD46 expression Post (CD46 expression [2]; [8]): 6.20
